{"source": "PubChem BioAssay AID1918999", "about": "(Molecular Pharmacology Branch, DTP, NCI, 2023);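 as to viability, T/C: compound exposure lasted 7 days; 100% = DMSO vehicle control growth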", "tested_on": "556581-035-R-J1-PDC complex spheroid growth", "assay": "Anticancer human tumor 556581-035-R-J1-PDC patient-derived ovarian carcinoma cell line growth inhibition [AhR]", "details": "for IC50: curve of first compound; for viability, T/C: stronger effect = lower value", "summary_of_the_method": "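Complex tumor spheroids co-cultured with HUVEC and human MSC stroma; AhR antagonists tested in combination with standard-of-care and investigational agents. Top concentration at or near clinical Cmax (else 10 microM), half-log dilutions; growth expressed as percent test/control.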", "data": [{"smiles": "CC1(C)CCC(CN2CCN(c3ccc(C(=O)NS(=O)(=O)c4ccc(NCC5CCOCC5)c([N+](=O)[O-])c4)c(Oc4cnc5[nH]ccc5c4)c3)CC2)=C(c2ccc(Cl)cc2)C1", "note": "+ Cc1cncc(-c2nc(NCCc3c[nH]c4ccccc34)c3ncn(C(C)C)c3n2)c1", "values": [{"measurement": "IC50", "setting": "second compound 0.1 µM", "value": "> 10", "unit": "µM"}, {"measurement": "IC50", "setting": "second compound 0.316 µM", "value": "> 10", "unit": "µM"}, {"measurement": "IC50", "setting": "second compound 1 µM", "value": "> 10", "unit": "µM"}, {"measurement": "IC50", "setting": "second compound 3.16 µM", "value": "> 10", "unit": "µM"}, {"measurement": "IC50", "setting": "second compound 10 µM", "value": "> 10", "unit": "µM"}, {"measurement": "viability, T/C", "setting": "second compound 0.1 µM, first compound 0.0316 µM", "value": 104, "unit": "%"}, {"measurement": "viability, T/C", "setting": "second compound 0.1 µM, first compound 0.1 µM", "value": 98.6, "unit": "%"}, {"measurement": "viability, T/C", "setting": "second compound 0.1 µM, first compound 0.316 µM", "value": 102, "unit": "%"}, {"measurement": "viability, T/C", "setting": "second compound 0.1 µM, first compound 1 µM", "value": 91, "unit": "%"}, {"measurement": "viability, T/C", "setting": "second compound 0.1 µM, first compound 3.16 µM", "value": 93.1, "unit": "%"}, {"measurement": "viability, T/C", "setting": "second compound 0.1 µM, first compound 10 µM", "value": 77.5, "unit": "%"}, {"measurement": "viability, T/C", "setting": "second compound 0.316 µM, first compound 0.0316 µM", "value": 95.6, "unit": "%"}, {"measurement": "viability, T/C", "setting": "second compound 0.316 µM, first compound 0.1 µM", "value": 98.2, "unit": "%"}, {"measurement": "viability, T/C", "setting": "second compound 0.316 µM, first compound 0.316 µM", "value": 102, "unit": "%"}, {"measurement": "viability, T/C", "setting": "second compound 0.316 µM, first compound 1 µM", "value": 95.1, "unit": "%"}, {"measurement": "viability, T/C", "setting": "second compound 0.316 µM, first compound 3.16 µM", "value": 96.3, "unit": "%"}, {"measurement": "viability, T/C", "setting": "second compound 0.316 µM, first compound 10 µM", "value": 72.3, "unit": "%"}, {"measurement": "viability, T/C", "setting": "second compound 1 µM, first compound 0.0316 µM", "value": 105, "unit": "%"}, {"measurement": "viability, T/C", "setting": "second compound 1 µM, first compound 0.1 µM", "value": 99.9, "unit": "%"}, {"measurement": "viability, T/C", "setting": "second compound 1 µM, first compound 0.316 µM", "value": 101, "unit": "%"}, {"measurement": "viability, T/C", "setting": "second compound 1 µM, first compound 1 µM", "value": 91.5, "unit": "%"}, {"measurement": "viability, T/C", "setting": "second compound 1 µM, first compound 3.16 µM", "value": 85.6, "unit": "%"}, {"measurement": "viability, T/C", "setting": "second compound 1 µM, first compound 10 µM", "value": 76.9, "unit": "%"}, {"measurement": "viability, T/C", "setting": "second compound 3.16 µM, first compound 0.0316 µM", "value": 95.2, "unit": "%"}, {"measurement": "viability, T/C", "setting": "second compound 3.16 µM, first compound 0.1 µM", "value": 101, "unit": "%"}, {"measurement": "viability, T/C", "setting": "second compound 3.16 µM, first compound 0.316 µM", "value": 91, "unit": "%"}, {"measurement": "viability, T/C", "setting": "second compound 3.16 µM, first compound 1 µM", "value": 87.8, "unit": "%"}, {"measurement": "viability, T/C", "setting": "second compound 3.16 µM, first compound 3.16 µM", "value": 80.6, "unit": "%"}, {"measurement": "viability, T/C", "setting": "second compound 3.16 µM, first compound 10 µM", "value": 67.8, "unit": "%"}, {"measurement": "viability, T/C", "setting": "second compound 10 µM, first compound 0.0316 µM", "value": 88.9, "unit": "%"}, {"measurement": "viability, T/C", "setting": "second compound 10 µM, first compound 0.1 µM", "value": 80.6, "unit": "%"}, {"measurement": "viability, T/C", "setting": "second compound 10 µM, first compound 0.316 µM", "value": 87.6, "unit": "%"}, {"measurement": "viability, T/C", "setting": "second compound 10 µM, first compound 1 µM", "value": 83.7, "unit": "%"}, {"measurement": "viability, T/C", "setting": "second compound 10 µM, first compound 3.16 µM", "value": 81.2, "unit": "%"}, {"measurement": "viability, T/C", "setting": "second compound 10 µM, first compound 10 µM", "value": 67.1, "unit": "%"}]}, {"smiles": "CCN(c1cc(-c2ccc(CN3CCOCC3)cc2)cc(C(=O)NCc2c(C)cc(C)[nH]c2=O)c1C)C1CCOCC1", "note": "+ Cc1cncc(-c2nc(NCCc3c[nH]c4ccccc34)c3ncn(C(C)C)c3n2)c1", "values": [{"measurement": "IC50", "setting": "second compound 0.1 µM", "value": "> 3", "unit": "µM"}, {"measurement": "IC50", "setting": "second compound 0.316 µM", "value": "> 3", "unit": "µM"}, {"measurement": "IC50", "setting": "second compound 1 µM", "value": "> 3", "unit": "µM"}, {"measurement": "IC50", "setting": "second compound 3.16 µM", "value": "> 3", "unit": "µM"}, {"measurement": "IC50", "setting": "second compound 10 µM", "value": 2.23, "unit": "µM"}, {"measurement": "viability, T/C", "setting": "second compound 0.1 µM, first compound 0.00949 µM", "value": 97.7, "unit": "%"}, {"measurement": "viability, T/C", "setting": "second compound 0.1 µM, first compound 0.03 µM", "value": 109, "unit": "%"}, {"measurement": "viability, T/C", "setting": "second compound 0.1 µM, first compound 0.0949 µM", "value": 96.2, "unit": "%"}, {"measurement": "viability, T/C", "setting": "second compound 0.1 µM, first compound 0.3 µM", "value": 102, "unit": "%"}, {"measurement": "viability, T/C", "setting": "second compound 0.1 µM, first compound 0.949 µM", "value": 102, "unit": "%"}, {"measurement": "viability, T/C", "setting": "second compound 0.1 µM, first compound 3 µM", "value": 100, "unit": "%"}, {"measurement": "viability, T/C", "setting": "second compound 0.316 µM, first compound 0.00949 µM", "value": 98, "unit": "%"}, {"measurement": "viability, T/C", "setting": "second compound 0.316 µM, first compound 0.03 µM", "value": 96.2, "unit": "%"}, {"measurement": "viability, T/C", "setting": "second compound 0.316 µM, first compound 0.0949 µM", "value": 102, "unit": "%"}, {"measurement": "viability, T/C", "setting": "second compound 0.316 µM, first compound 0.3 µM", "value": 101, "unit": "%"}, {"measurement": "viability, T/C", "setting": "second compound 0.316 µM, first compound 0.949 µM", "value": 99.5, "unit": "%"}, {"measurement": "viability, T/C", "setting": "second compound 0.316 µM, first compound 3 µM", "value": 104, "unit": "%"}, {"measurement": "viability, T/C", "setting": "second compound 1 µM, first compound 0.00949 µM", "value": 104, "unit": "%"}, {"measurement": "viability, T/C", "setting": "second compound 1 µM, first compound 0.03 µM", "value": 118, "unit": "%"}, {"measurement": "viability, T/C", "setting": "second compound 1 µM, first compound 0.0949 µM", "value": 112, "unit": "%"}, {"measurement": "viability, T/C", "setting": "second compound 1 µM, first compound 0.3 µM", "value": 94.9, "unit": "%"}, {"measurement": "viability, T/C", "setting": "second compound 1 µM, first compound 0.949 µM", "value": 88.2, "unit": "%"}, {"measurement": "viability, T/C", "setting": "second compound 1 µM, first compound 3 µM", "value": 92.3, "unit": "%"}, {"measurement": "viability, T/C", "setting": "second compound 3.16 µM, first compound 0.00949 µM", "value": 86.4, "unit": "%"}, {"measurement": "viability, T/C", "setting": "second compound 3.16 µM, first compound 0.03 µM", "value": 99.3, "unit": "%"}, {"measurement": "viability, T/C", "setting": "second compound 3.16 µM, first compound 0.0949 µM", "value": 101, "unit": "%"}, {"measurement": "viability, T/C", "setting": "second compound 3.16 µM, first compound 0.3 µM", "value": 88.6, "unit": "%"}, {"measurement": "viability, T/C", "setting": "second compound 3.16 µM, first compound 0.949 µM", "value": 92.1, "unit": "%"}, {"measurement": "viability, T/C", "setting": "second compound 3.16 µM, first compound 3 µM", "value": 92.2, "unit": "%"}, {"measurement": "viability, T/C", "setting": "second compound 10 µM, first compound 0.00949 µM", "value": 84.4, "unit": "%"}, {"measurement": "viability, T/C", "setting": "second compound 10 µM, first compound 0.03 µM", "value": 83.8, "unit": "%"}, {"measurement": "viability, T/C", "setting": "second compound 10 µM, first compound 0.0949 µM", "value": 83.3, "unit": "%"}, {"measurement": "viability, T/C", "setting": "second compound 10 µM, first compound 0.3 µM", "value": 69.6, "unit": "%"}, {"measurement": "viability, T/C", "setting": "second compound 10 µM, first compound 0.949 µM", "value": 66.5, "unit": "%"}, {"measurement": "viability, T/C", "setting": "second compound 10 µM, first compound 3 µM", "value": 44.3, "unit": "%"}]}]}
